{
  "source": "paper PMC11819763",
  "about": "“Activity of Potassium Channel BmK-NSPK Inhibitor Regulated by Basic Amino Acid Residues: Novel Insight into the Diverse Peptide Pharmacology” (Molecules, 2025)",
  "key": {"[1]": {"system": "hKv1.3-M2 channel (filter region of hKv1.3 substituted by hKv1.2 region)", "test": "Whole-cell patch clamp, chimeric hKv1.3-M2 channel currents", "assay_type": "cell-based, human", "details": "mean ± SE, n ≥ 3, SEM", "procedure": "Apart from the chimeric hKv1.3-M1, this work further constructed the chimeric hKv1.3-M2 channel, in which the filter region of hKv1.3 channel was substituted by the equivalent region of hKv1.2 channel (Figure 6A). Pharmacological experiments 100 nM and 1 μM MeuKTX were able to inhibit 78.3 ± 4.9% and 95.9 ± 1.3% of hKv1.3-M2 channel currents, respectively, which indicated the minor effect of channel filter region on MeuKTX binding (Figure 6B). However, more significant effects were also observed for BmK-NSPK analogs with different numbers of basic residues.\n(§1) The pRc/CMV-hKv1.3 was kindly provided by Professor Stephan Grissmer (University of Ulm, Ulm, Germany) and Professor Olaf Pongs (Zentrum für Molekulare Neurobiologie der Universität Hamburg, Hamburg, Germany). The cDNAs encoding hKv1.1 and hKv1.2 (from Professor Stephan Grissmer, University of Ulm, Ulm, Germany) were subcloned into the vector pIRES2-EGFP (TaKaRa Clontech, Mountain View, CA, USA). The cDNAs encoding hKv1.6 were subcloned into the vector pcDNA 3.1(+) (TaKaRa Clontech, Mountain View, CA, USA). A QuikChange Site-Directed Mutagenesis Kit (Stratagene, La Jolla, CA, USA) was used to produce the mutants based on the wild-type hKv1.3 channel plasmids. All plasmids and their mutants were verified by DNA sequencing before the expression. The three channel chimeras were, respectively, named by hKv1.3-M1 (425DPTSGFS432 → 425ERESQFP432), hKv1.3-M2 (452HPV456 → 452VPT456) and hKv1.3-M3 (425DPTSGFS432 → 425ERESQFP432, 452HPV456 → 452VPT456).\n(§2) In a 5% CO2 incubator at 37 °C, HEK293T cells were cultured in DMEM medium (Gibco, Grand Island, NY, USA) supplemented with 10% fetal bovine serum and 1% penicillin/streptomycin. Potassium channel plasmids and pEGFP-N1 were co-transfected into the HEK293 cells using the ExFect Transfection Reagent (Vazyme, Nanjin, China). After one day of transfection, the potassium currents were recorded, and the positive cells were selected based on the presence of GFP fluorescence.\n(§3) Whole-cell current measurement and data acquisition were performed using an EPC-10 patch-clamp amplifier controlled by Pulse (HEKA Elektronik, Lambrecht, Germany). The potassium currents were recorded according to the recording protocol for the Kv1 channel, as described in previously published references. Peptides were dissolved in an external solution containing 0.01% BSA for electrophysiological experiments. The patch pipette solution contained 140 mM KF (Sigma, St. Louis, MC, USA), 2 mM MgCl2 (Sinopharm Chemical Reagent Co., Ltd., Shanghai, China), 1 mM EGTA (Sigma) and 10 mM HEPES (neoFroxx, Einhausen, Hessen, Germany) (pH adjusted to 7.4 with KOH (Sinopharm Chemical Reagent Co., Ltd., Shanghai, China)), and the bath solution contained 4.5 mM KCl, 160 Mm NaCl (Sinopharm Chemical Reagent Co., Ltd., Shanghai, China), 5 mM HEPES, 2 mM CaCl2 (Sinopharm Chemical Reagent Co., Ltd., Shanghai, China) and 1 mM MgCl2 (pH adjusted to 7.4 with NaOH (Sinopharm Chemical Reagent Co., Ltd., Shanghai, China)).\n(§4) Graphing and data analysis were conducted using GraphPad Prism software (Version 8.0, San Diego, CA, USA), ClampFit software (version 10.2, Molecular Devices, Sunnyvale, CA, USA), and SigmaPlot software (version 12.0, IBM SPSS, Chicago, IL, USA). The dose–response relationship between the channel current and peptide inhibition was modeled by the modified Hill equation: Ipeptide/Icontrol = 1/{1 + [peptide]/IC50}, where Ipeptide represents the potassium current under peptide inhibition, Icontrol represents the peak current, IC50 is the half-maximal inhibition concentration and [peptide] represents the peptide concentration. The IC50 was obtained by fitting the Hill equation. Results are presented as mean ± SE, with each sample tested on at least three cells (n ≥ 3)."}, "[2]": {"system": "hKv1.3-M1 channel (turret domain of hKv1.3 substituted by hKv1.2 region)", "test": "Whole-cell patch clamp, chimeric hKv1.3-M1 channel currents", "assay_type": "cell-based, human", "details": "mean ± SE, n ≥ 3, SEM", "procedure": "In order to further investigate the effect of basic residue number on BmK-NSPK pharmacology, the activities of BmK-NSPK analogs were also tested on the Kv1.3 channel chimeras in this work. […] Based on the weak inhibition potencies of BmK-NSPK-7K and BmK-NSPK-8K towards hKv1.2 channel (Figure 5C,D), the work first constructed the chimeric hKv1.3-M1, in which the turret domain of hKv1.3 channel was substituted by the equivalent region of hKv1.2 channel (Figure 6A). Pharmacological experiments with 100 nM and 1 μM MeuKTX were able to inhibit 45.7 ± 7.9% and 82.8 ± 6.1% of hKv1.3-M1 channel currents, respectively (Figure 6B).\nas §1, §2, §3, §4"}, "[3]": {"system": "hKv1.3-M3 channel (turret, pore helix and filter region of hKv1.3 replaced by hKv1.2 regions)", "test": "Whole-cell patch clamp, chimeric hKv1.3-M3 channel currents", "assay_type": "cell-based, human", "details": "mean ± SE, n ≥ 3, SEM", "source_text": "as §1, §2, §3, §4"}, "hKv1.1 channel": {"system": "hKv1.1 channel", "test": "Whole-cell patch clamp, hKv1.1 channel currents", "assay_type": "cell-based, human", "details": "1 μM peptide, mean ± SE, n ≥ 3, SEM", "source_text": "as §1, §2\n(§5) Whole-cell current measurement and data acquisition were performed using an EPC-10 patch-clamp amplifier controlled by Pulse (HEKA Elektronik, Lambrecht, Germany). The potassium currents were recorded according to the recording protocol for the Kv1 channel, as described in previously published references. Peptides were dissolved in an external solution containing 0.01% BSA for electrophysiological experiments. […]"}, "hKv1.3 channel": {"target": "T1, hKv1.3 channel (Homo sapiens, UniProt P22001)", "T1 construct": "expressed in transfected cells; host or cells: HEK293T cells, co-transfected with pEGFP-N1", "T1 sequence (P22001 whole entry)": "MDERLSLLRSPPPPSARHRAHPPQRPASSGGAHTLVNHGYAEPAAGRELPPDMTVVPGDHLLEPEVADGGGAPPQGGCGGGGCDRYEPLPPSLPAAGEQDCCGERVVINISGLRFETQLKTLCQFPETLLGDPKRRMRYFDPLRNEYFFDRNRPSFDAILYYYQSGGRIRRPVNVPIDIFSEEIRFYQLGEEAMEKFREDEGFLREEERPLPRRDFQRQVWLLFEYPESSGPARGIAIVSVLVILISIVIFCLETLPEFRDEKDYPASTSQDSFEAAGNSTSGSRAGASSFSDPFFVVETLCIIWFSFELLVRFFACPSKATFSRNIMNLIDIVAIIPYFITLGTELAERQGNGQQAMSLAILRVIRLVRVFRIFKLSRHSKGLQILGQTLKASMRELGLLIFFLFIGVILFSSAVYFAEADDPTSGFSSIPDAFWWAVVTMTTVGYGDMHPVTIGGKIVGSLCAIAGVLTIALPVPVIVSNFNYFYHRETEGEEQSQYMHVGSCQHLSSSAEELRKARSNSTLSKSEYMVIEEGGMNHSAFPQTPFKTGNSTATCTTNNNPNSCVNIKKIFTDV", "test": "Whole-cell patch clamp, hKv1.3 channel currents in HEK293T cells", "assay_type": "cell-based", "details": "from IC50 values on hKv1.3 channel", "source_text": "In order to verify the differential pharmacological activities between BmK-NSPK, MeuKTX, KTX-2 and KTX-3, their recombinant peptides were produced according to our previous procedure. […] Then, MALDI-TOF-MS was further used to analyze BmK-NSPK. The determined molecular mass was […], which well corresponds to its calculated value of 3659.8 Da. The circular dichroism (CD) spectra also indicated the overall similarity to the secondary structures between BmK-NSPK, MeuKTX, KTX-2 and KTX-3 peptides. […] Subsequently, the patch clamp technique was used to characterize the pharmacological activities of BmK-NSPK, MeuKTX, KTX-2 and KTX-3 peptides according to our previously described procedure. […]\nas §2, with “Potassium channel plasmids and pEGFP-N1 were co-transfected into the HEK293 cells using the ExFect Transfection Reagent (Vazyme, Nanjin, China).” left out\nas §5, with “references.” for “references. Peptides were dissolved in an external solution containing 0.01% BSA for electrophysiological experiments.”"}, "hKv1.2 channel": {"system": "hKv1.2 channel", "test": "Whole-cell patch clamp, hKv1.2 channel currents", "assay_type": "cell-based, human", "details": "1 μM peptide, mean ± SE, n ≥ 3, SEM", "source_text": "as §1, §2, §5"}, "hKv1.6 channel": {"system": "hKv1.6 channel", "test": "Whole-cell patch clamp, hKv1.6 channel currents", "assay_type": "cell-based, human", "details": "1 μM peptide, mean ± SE, n ≥ 3, SEM", "source_text": "as §1, §2, §5"}},
  "note": "Positions of bridges follow the written chain, without caps; N, C: chain ends. Residues, ends and D or L forms follow the SMILES beside them.",
  "data": [
    {"smiles": "CSCC[C@@H]1NC(=O)CNC(=O)[C@H](C)NC(=O)[C@H](CC(=O)O)NC(=O)[C@H](CCCCN)NC(=O)[C@@H]2CSSC[C@@H](C(=O)N[C@H](C(=O)N3CCC[C@H]3C(=O)N[C@@H](CCCCN)C(=O)NCC(=O)O)[C@@H](C)O)NC(=O)[C@H](CC(=O)O)NC(=O)[C@@H]3CSSC[C@H](NC(=O)[C@H](CCC(N)=O)NC(=O)CNC(=O)[C@H](CO)NC(=O)[C@H](Cc4c[nH]cn4)NC(=O)[C@H](CCCCN)NC(=O)[C@@H](NC(=O)[C@H](CCCCN)NC(=O)[C@@H](NC(=O)[C@H](CC(N)=O)NC(=O)[C@H](CCCCN)NC(=O)CNC(=O)[C@@H](N)C(C)C)C(C)C)CSSC[C@H](NC(=O)[C@H](CCCCN)NC(=O)CNC(=O)[C@H](Cc4ccccc4)NC(=O)[C@H](CCCNC(=N)N)NC1=O)C(=O)N[C@@H](CCSC)C(=O)N[C@@H](CC(N)=O)C(=O)NCC(=O)N[C@@H](CCCCN)C(=O)N3)C(=O)N[C@@H](CC(C)C)C(=O)N[C@@H](CCCCN)C(=O)N1CCC[C@H]1C(=O)N2", "note": "[BmK-NSPK-8K] (H-VGKNVKCKHSGQCLKPCKDAGMRFGKCMNGKCDCTPKG-OH; disulfide 7-27, 13-32, 17-34 (inferred); N-terminus and C-terminus assumed)", "values": [
      {"measurement": "inhibition of hKv1.3-M2 channel currents", "setting": "[1]; 100 nM peptide", "value": "8.8 ± 2.6", "unit": "%"},
      {"measurement": "inhibition of hKv1.3-M2 channel currents", "setting": "[1]; 1 μM peptide", "value": "51.3 ± 1.5", "unit": "%"},
      {"measurement": "inhibition of hKv1.3-M1 channel currents", "setting": "[2]; 100 nM peptide", "value": "4.5 ± 1.2", "unit": "%"},
      {"measurement": "inhibition of hKv1.3-M1 channel currents", "setting": "[2]; 1 μM peptide", "value": "27.7 ± 4.0", "unit": "%"},
      {"measurement": "inhibition of hKv1.3-M3 channel currents", "setting": "[3]; 100 nM peptide", "value": "2.7 ± 0.92", "unit": "%"},
      {"measurement": "inhibition of hKv1.3-M3 channel currents", "setting": "[3]; 1 μM peptide", "value": "5.1± 1.4", "unit": "%"},
      {"measurement": "inhibition of hKv1.1 channel currents", "setting": "hKv1.1 channel", "value": "84.3 ± 1.8", "unit": "%"},
      {"measurement": "fold decreased activity on hKv1.3 compared with BmK-NSPK-7K", "setting": "hKv1.3 channel", "value": "~ 10 fold"},
      {"measurement": "inhibition of hKv1.2 channel currents", "setting": "hKv1.2 channel", "value": "12.3 ± 1.8", "unit": "%"},
      {"measurement": "inhibition of hKv1.6 channel currents", "setting": "hKv1.6 channel", "value": "34.1 ± 4.8", "unit": "%"}
    ]}
  ]
}
